The text below walks through data of a melting point compilation (Tetko et al.; mined from patent text by program, amines drawn as free bases though some values may be those of a salt).

Usually melting point stands for the temperature of the solid-liquid transition. In turn, `N#CCOc1ccc(-c2cc(O)c(SCCc3ccccc3)c(=O)o2)cc1` had a melting point of 157 to 159 °C.

As to `Clc1ccc2c(c1)CCN(c1ccccc1)C2`, the melting point was in the range of 67 to 70 °C.

Compound `CC(C)(O)C(=O)c1ccc(OCC2CO2)cc1` (stereo not drawn) displayed a melting point of 54 °C.

For `CC(=O)Oc1ccc(S(=O)(=O)c2cnc(C)nc2Nc2c(C)cc(C)cc2C)cc1`, the melting point was 142 to 144 °C.

Turning to `N#CCC(O)(c1ccc(Cl)cc1)c1ccc(-c2ccc(Br)cc2)cc1` (stereo not drawn), the melting point lay within 160 to 161 °C.

On to `Nc1nc(NCc2cccc(I)c2)c2ncn(C3OC(CO)C(O)C3O)c2n1` (stereo not drawn), for which the melting point fell in the range of 152 to 154 °C.

On to `CC1=C(c2cc(C)no2)C(=O)CCC1`, for which the melting point is 104 to 105 °C.

Compound `CCCCCCCCCCCCCCCCNc1ccc(C(=O)OC2COC(c3ccccc3)OC2)cc1` (stereo not drawn) displayed a melting point of 115 to 117 °C.

The compound `CC(C)(CNc1ccnc2cc(Cl)ccc12)NCc1ccc(C(F)(F)F)cc1` showed a melting point of 145 to 147 °C.

On to `COc1ncnc2c(NC3OC(CO)C(O)C3O)ncnc12` (stereo not drawn), for which the melting point is 183 °C.

Regarding `Cc1c(C(=O)c2ccc(Cl)c(S(N)(=O)=O)c2)c2ccccc2n1C`, the melting point was 247 to 249 °C.

Compound `COc1ccc2c(c1)C(=O)Cc1c(C#N)cccc1S2` displayed a melting point of 186 to 187 °C.

`Nc1nc(Cl)cnc1-c1cccc(Cl)c1Cl` showed a melting point of 179 to 181 °C.

As to `CC(=O)c1ccccc1CN1C(=O)C(NC(=O)Nc2cccc(-c3nnn[nH]3)c2)N=C(C2CCCCC2)c2cccc(C)c21` (stereo not drawn), the melting point lay within 199 to 208 °C.

As to `COc1ccc(C(=O)Nc2ccncc2)c2c1oc1ccccc12`, the melting point came to 215 °C.

In turn, `COC1=CCC2=C(CC[C@@H]3[C@@H]2CC[C@@]2(C)[C@H]3CCC23CC(O)CO3)C1` (stereo partly drawn) gave a melting point of 152 to 155 °C.

As to `N#Cc1ccc(Nc2ccncc2[N+](=O)[O-])cc1`, the melting point is 210 to 211 °C.

In turn, `CC(C)(C)OC(=O)N1CCn2c(cc3ccccc32)C1` gave a melting point of 103 to 105 °C.

Regarding `O=C1CCSc2cc(Br)ccc21`, the melting point fell in the range of 55 to 57 °C.

`CS(=O)(=O)NC1CCN(c2ccc(C#N)c3ccccc23)C1` (stereo not drawn) showed a melting point of 128 to 129 °C.

`Cc1cccc(-c2cc(O)c(SCc3ccccc3)c(=O)o2)c1`: the melting point fell in the range of 137 to 138 °C.

Compound `CCOC(=O)[C@H]1C=C[C@H](c2ccccc2)n2c(=O)n(CCCl)c(=O)n21` (relative stereo) returned a melting point of 117 to 119 °C.

For the compound `CNC(=O)[C@H](O)[C@@H](Sc1ccccc1N)c1ccc(OC)cc1`, the melting point was 145 to 147 °C.

`Cc1nc2ncnn2c2c1CCN2C1CCCCCCC1` gave a melting point of 188 to 190 °C.

In turn, `COc1cc(NC(=O)n2cc(F)c(=O)[nH]c2=O)cc(OC)c1OC` came in with a melting point of 168 to 170 °C.

In the case of `CCCCc1ncc(/C=C(\Cc2cc(OC)cs2)C(=O)O)n1Cc1ccccc1Cl`, the melting point was in the range of 170 to 171 °C.

Compound `Nc1nc2ccc(Cc3cccs3)cc2s1` came in with a melting point of 188 to 191 °C.

As to `COc1ccc(-n2nc(Sc3ccccc3C)c(C)c(C#N)c2=O)cc1`, the melting point lay within 144 to 146 °C.

In turn, `CC(=O)c1ccc2c(c1)OC(C(N)=O)CO2` (stereo not drawn) gave a melting point of 212 °C.

Take `CSc1ccc(NC(=N)c2ccccc2)cc1`: the melting point lay within 129 to 131 °C.

For `N#Cc1cccc(-c2ccc3c(Cl)c[nH]c(=O)c3c2)c1`, the melting point is greater than 300 °C.

As to `COC(=O)C(Cc1cccc(C2(OC)CCOCC2)c1)c1nc(-c2ccccc2)c(-c2ccc(S(N)(=O)=O)cc2)o1` (stereo not drawn), the melting point fell in the range of 88.7 to 94.9 °C.

In the case of `CCCCCCCOc1ccc(C(=O)Nc2ccccc2O)cc1`, the melting point was 131 to 133 °C.

With `OC/C=C/c1ccc(C(F)(F)F)cc1`, the melting point lay within 53 to 55 °C.

In the case of `OCC1OC(n2cnc3c(NC4CC=CCC4c4cccs4)ncnc32)C(O)C1O` (stereo not drawn), the melting point was in the range of 105 to 110 °C.

`O=C(Nc1cccc(C(F)(F)F)c1F)c1ccccc1[N+](=O)[O-]` showed a melting point of 156 to 157 °C.

`COc1ccc(-n2nc(Cl)cc2-c2ccc(S(C)(=O)=O)cc2)cc1C#N` returned a melting point of 191 to 194 °C.

`O=S(=O)(c1ccc(Cl)cc1)C1(c2cccnc2Cl)CCCCCC1` came in with a melting point of 168 to 169 °C.

Compound `Nc1ncc2c(n1)CCC(NC(=O)[C@@H]1CCCN1C(=O)[C@@H](CC1CCCCC1)NS(=O)(=O)Cc1ccccc1)C2` (stereo partly drawn) yielded a melting point of 114 to 117 °C.

`COC(=O)C1Cc2c([nH]c3ccccc23)C(c2ccccc2Br)N1C(=O)CCl` (stereo not drawn) displayed a melting point of 113 to 115 °C.

The compound `C[Si](C)(C)c1cccc(Cl)c1C(=O)NC(c1ccccc1)n1nnc2ccccc21` (stereo not drawn) came in with a melting point of 184 to 186 °C.

For `CN(C)CCCn1c(=O)c2c(N)c3c(=O)c4ccccc4c(=O)c3c(N)c2c1=O`, the melting point fell in the range of 215 to 216 °C.

For the compound `CCCCCCCCCCNC1=CC(=O)c2c(OC)ccc(OC)c2C1=O`, the melting point was 86 to 87 °C.

Take `Oc1ccc2c(c1)COc1cc3cc(O)ccc3cc1-2`: the melting point lay within 231 to 233 °C.

`O=C(NC(Cc1ccc(NCc2ccccc2)cc1)C(=O)O)c1cn2cc(-c3ccc(Cl)cc3)ccc2n1` (stereo not drawn) came in with a melting point of 260 °C.

Take `O=C(OC1=CC(O)=CC(C=Cc2ccc(O)cc2)(C(=O)c2cc(O)c(O)c(O)c2)C1)c1cc(O)c(O)c(O)c1` (stereo not drawn): the melting point lay within 210 to 212 °C.

For the compound `COc1ccc(N2CCOCC2)c2sc(NC(=O)N(C)C3CCC(F)(F)CC3)nc12`, the melting point lay in the range of 189 to 192 °C.

Take `Cc1[nH]n(C2CCCC2)c2nc(-c3cccc4cccnc34)nc(=O)c1-2`: the melting point fell in the range of 242 to 244 °C.

Compound `O=C(c1cccc(Cl)n1)c1ccc(Cl)cc1Cl` registered a melting point of 103 to 104 °C.

As to `CC(C)(C)OC(=O)N1Cc2cscc2C1`, the melting point lay within 36 to 38 °C.

Compound `CCCCn1c(=O)c2cc(C(=O)O)cn2c2cc(Cl)ccc21` came in with a melting point of 275 to 276 °C.

Compound `CCOC(=O)C1=C(C)Nc2ccnc(OC(C)C)c2C1c1cccc([N+](=O)[O-])c1` (stereo not drawn) gave a melting point of 180 to 182 °C.

The compound `CSc1ccc(-c2cc(C#N)c(=O)[nH]c2C)cc1` displayed a melting point of 275 to 276 °C.

In the case of `CCN(CC)c1ccc(-n2c(CC(=O)O)c(C(=O)O)c3cc(Oc4cccc(Cl)c4)ccc32)cc1`, the melting point was 186 to 191 °C.

`CCOC(=O)CCn1nc(-c2cc(C(C)(C)C)c(O)c(C(C)(C)C)c2)c2cccnc21` gave a melting point of 105 to 106 °C.

`CCN(CC)CCn1nc2c3c(c(N)ccc31)Oc1ccccc1-2` had a melting point of 78 to 80 °C.

`Cc1cc(-c2cn(-c3cccc(OCCn4ccnc4)c3)c3ncnc(N)c23)cc(C)c1O` gave a melting point of 100 °C.

`CC(C)c1cccc2c1O[C@@H](C(C)C)C(=O)N2` displayed a melting point of 151 to 152 °C.

In turn, `CN1c2ccc(S(=O)(=O)c3ccccc3)cc2C2C[C@H](N)CCC21` (stereo partly drawn) gave a melting point of 217 to 219 °C.

`O=c1c(-c2ccccc2Cl)coc2cc(OCc3nnn[nH]3)cc(Cl)c12` registered a melting point of 192 to 195 °C.

`Cc1cccc2c(=O)[nH]c(C3CCN(C)CC3)cc12` yielded a melting point of 196 to 198 °C.

The compound `Cc1ccnc(C(=O)c2[nH]c3cc(C(F)(F)F)ccc3c2CC(=O)O)c1` registered a melting point of 210 to 220 °C.

Turning to `Cc1[nH]c(=O)n(C2CCCCC2)c1-c1ccc(OCCC(C)C)cc1`, the melting point is 198 to 200 °C.
